The target in the assay is T1, human NaPi-IIb (Homo sapiens, UniProt O95436).
T1 construct: expressed in transfected cells
T1 sequence (O95436 1-690): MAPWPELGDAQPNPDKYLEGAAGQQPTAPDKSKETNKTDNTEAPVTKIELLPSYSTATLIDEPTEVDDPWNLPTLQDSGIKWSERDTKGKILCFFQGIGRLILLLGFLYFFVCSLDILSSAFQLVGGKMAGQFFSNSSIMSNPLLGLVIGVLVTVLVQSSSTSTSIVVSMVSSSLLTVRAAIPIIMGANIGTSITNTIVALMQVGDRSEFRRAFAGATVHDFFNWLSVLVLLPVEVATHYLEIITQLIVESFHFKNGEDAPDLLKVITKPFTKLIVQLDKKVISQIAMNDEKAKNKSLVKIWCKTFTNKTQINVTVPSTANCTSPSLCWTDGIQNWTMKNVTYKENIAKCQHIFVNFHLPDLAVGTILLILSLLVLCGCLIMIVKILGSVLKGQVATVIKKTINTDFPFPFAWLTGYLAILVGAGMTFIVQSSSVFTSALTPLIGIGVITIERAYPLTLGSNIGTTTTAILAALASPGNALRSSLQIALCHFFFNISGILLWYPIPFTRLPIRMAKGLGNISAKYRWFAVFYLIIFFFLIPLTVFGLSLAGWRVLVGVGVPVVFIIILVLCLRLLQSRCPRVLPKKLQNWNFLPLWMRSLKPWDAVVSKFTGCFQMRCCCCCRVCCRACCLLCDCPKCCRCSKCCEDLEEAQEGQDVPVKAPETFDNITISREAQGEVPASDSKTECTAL
In words: Inhibitory effect on 33PO4 uptake into human NaPi-IIb-expressing CHO cells. Format: cell-based. A digest of the protocol: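 Uptake of ³³PO4 was measured by scintillation counting after ice-cold buffer A washes. Cells were CHO stably expressing human NaPi-IIb, seeded overnight, and exposed to ³³PO4 in buffer A at room temperature.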

[1] abbreviates: read-out: IC50 against 33PO4 uptake into human NaPi-IIb-expressing cells.

Read-outs that look alike come from different tables or passages of the source.

In general, IC50 refers to the concentration that inhibits the measured activity by half. With `Cc1c(-c2cc(C(F)(F)F)ccc2NC(=O)C2=C(O)C3(CCCCC3)N(C)N(Cc3ccc(OCCN4CCOCC4)c(F)c3F)C2=O)ncnc1C(F)(F)F` [Example 296], the IC50 (read-out: IC50) turned out to be 10 µM. On the same count and under the same terms, under `C[C@]12CCCN1N(Cc1cccc(F)c1F)C(=O)C(C(=O)Nc1ccc(C(F)(F)F)cc1-c1cncc(C(F)(F)F)c1)=C2O` [Example 91] stands 15.7 µM. On the same count and under the same terms, then `CN1N(Cc2ccc(OCCN3CCOC(C)(C)C3)c(F)c2F)C(=O)C(C(=O)Nc2ccc(C(F)(F)F)cc2-c2cc(C(F)(F)F)ncn2)=C(O)C12CCC2` [Example 342], with 8.8 µM; and `C[C@]12CCCN1N(Cc1c(F)cc(OCCCCCCOC[C@H](O)CO)cc1F)C(=O)C(C(=O)Nc1ccc(C(F)(F)F)cc1-c1ccc(C(F)(F)F)nc1)=C2O` [Example 155], with 2.3 µM. For `CC(CN1CCOCC1)Oc1ccc(CN2C(=O)C(C(=O)Nc3ccc(C(F)(F)F)cc3-c3cc(C(F)(F)F)ncn3)=C(O)C3(CCC3)N2C)c(F)c1F` (stereo not shown) [Example 408], under setting [1], the IC50 turned out to be 14.6 µM.

Consider `COCC(C)(C)N(C)CCOc1ccc(CN2C(=O)C(C(=O)Nc3ccc(C(F)(F)F)cc3-c3cc(C(F)(F)F)ncn3)=C(O)C3(CCC3)N2C)c(F)c1F` [Example 349], for which the concentration for half-maximal inhibition (IC50) under setting [1] was found to be 8.3 µM. In the case of `C[C@]12CCCN1N(Cc1c(F)cc(OCCCCCCOC[C@@H](O)CO)cc1F)C(=O)C(C(=O)Nc1ccc(C(F)(F)F)cc1-c1ccc(C(F)(F)F)nc1)=C2O` [Example 154], the IC50 (read-out: IC50) was found to be 2.5 µM.

Consider `CN1N(Cc2cccc(F)c2F)C(=O)C(C(=O)Nc2ccc(C(F)(F)F)cc2-c2cc(C#N)ncn2)=C(O)C1(C)C` [Example 303], for which, for the setting “read-out: IC50”, the 50% inhibitory concentration (IC50) amounted to 16 µM.

As to `CN1CCN(CCOc2ccc(CN3C(=O)C(C(=O)Nc4ccc(C(F)(F)F)cc4-c4cc(C(F)(F)F)ncn4)=C(O)C4(CCC4)N3C)c(F)c2F)CC1=O` [Example 359], the IC50 under setting [1] turned out to be 18.4 µM.

With `CC1(C)C(O)=C(C(=O)Nc2ccc(C(F)(F)F)cc2-c2cc(C(F)(F)F)ncn2)C(=O)N(Cc2cccc(F)c2F)N1c1ccccc1` [Example 299], the IC50 (read-out: IC50) came to 18.8 µM.

For the molecule `COC(=O)CN(C)CCOc1ccc(CN2C(=O)C(C(=O)Nc3ccc(C(F)(F)F)cc3-c3cc(C(F)(F)F)ncn3)=C(O)C3(CCC3)N2C)c(F)c1F` [Example 346], the IC50 (read-out: IC50) is 6.9 µM. Turning to `COCCOc1cc(NC(=O)C2=C(O)C3(CCCC3)N(C)N(Cc3ccc(OCCN(C)CCOC)c(F)c3F)C2=O)c(-c2ncnc(C(F)(F)F)c2C)cc1C(F)(F)F` [Example 439, 7-[[2,3-Difluoro-4-[2-[2-methoxyethyl(methyl)amino]ethoxy]phenyl]methyl]-10-hydroxy-N-[5-(2-methoxyethoxy)-2-[5-methyl-6-(trifluoromethyl)pyrimidin-4-yl]-4-(trifluoromethyl)phenyl]-6-methyl-8-oxo-6,7-diazaspiro[4.5]dec-9-ene-9-carboxamide], the IC50 under setting [1] came out at 18.9 µM. Still for that read-out and setting: under `CN(C[C@H](O)[C@@H](O)[C@H](O)[C@H](O)CO)C(=O)COCCOCCOCCOCCOc1ccc(CN2C(=O)C(C(=O)Nc3ccc(C(F)(F)F)cc3-c3cc(C(F)(F)F)ncn3)=C(O)C3(CCCC3)N2C)c(F)c1F` [Example 441, 7-[[2,3-Difluoro-4-[2-[2-[2-[2-[2-[methyl-[(2S,3R,4R,5R)-2,3,4,5,6-pentahydroxyhexyl]amino]-2-oxoethoxy]ethoxy]ethoxy]ethoxy]ethoxy]phenyl]methyl]-10-hydroxy-6-methyl-8-oxo-N-[4-(trifluoromethyl)-2-[6-(trifluoromethyl)pyrimidin-4-yl]phenyl]-6,7-diazaspiro[4.5]dec-9-ene-9-carboxamide] stands 21.4 µM; under `CN1N(Cc2ccc(OCCN3CCN(S(C)(=O)=O)CC3)c(F)c2F)C(=O)C(C(=O)Nc2ccc(C(F)(F)F)cc2-c2cc(C(F)(F)F)ncn2)=C(O)C12CCCC2` [Example 379], 27.3 µM. Take `C[C@]12CCCN1N(Cc1c(F)cccc1Cl)C(=O)C(C(=O)Nc1ccc(C(F)(F)F)cc1-c1ccc(C(F)(F)F)nc1)=C2O` [Example 204]: the IC50 (read-out: IC50) is 1 µM. On the same count and under the same terms, then `CN1N(Cc2cccc(F)c2F)C(=O)C(C(=O)Nc2ccc(C(F)(F)F)nc2-c2ccc(C(F)(F)F)nc2)=C(O)C1(C)C` [Example 304], with 3.5 µM; and `COC(=O)c1cccc(-c2cc(C(F)(F)F)ccc2NC(=O)C2=C(O)[C@@]3(C)CCCN3N(Cc3cccc(F)c3F)C2=O)c1OC` [Example 65], with 16.2 µM. Still for that read-out and setting: under `CN1N(Cc2ccc(OCCN3CCOC(=O)C3)c(F)c2F)C(=O)C(C(=O)Nc2ccc(C(F)(F)F)cc2-c2cc(C(F)(F)F)ncn2)=C(O)C12CCC2` [Example 337, 8-[[2,3-Difluoro-4-[2-(2-oxomorpholin-4-yl)ethoxy]phenyl]methyl]-5-hydroxy-9-methyl-7-oxo-N-[4-(trifluoromethyl)-2-[6-(trifluoromethyl)pyrimidin-4-yl]phenyl]-8,9-diazaspiro[3.5]non-5-ene-6-carboxamide] stands 17 µM.

Consider `CN1N(Cc2ccc(OCCN3CCC(N4CCOCC4)CC3)c(F)c2F)C(=O)C(C(=O)Nc2ccc(C(F)(F)F)cc2-c2cc(C(F)(F)F)ncn2)=C(O)C12CCCC2` [Example 374], for which the IC50 under setting [1] worked out at 16.4 µM. Still for that read-out and setting: then `CN1N(Cc2ccc(OCCOCCOCCOCCNC(=O)[C@@H](O)[C@H](O)[C@@H](O)[C@@H](O)CO)c(F)c2F)C(=O)C(C(=O)Nc2ccc(C(F)(F)F)cc2-c2cc(C(F)(F)F)ncn2)=C(O)C12CCCC2` [Example 428, 7-[[2,3-Difluoro-4-[2-[2-[2-[2-[[(2S,3R,4S,5S)-2,3,4,5,6-pentahydroxyhexanoyl]amino]ethoxy]ethoxy]ethoxy]ethoxy]phenyl]methyl]-10-hydroxy-6-methyl-8-oxo-N-[4-(trifluoromethyl)-2-[6-(trifluoromethyl)pyrimidin-4-yl]phenyl]-6,7-diazaspiro[4.5]dec-9-ene-9-carboxamide], with 23 µM. The same measure, in the same setting: under `CN1N(Cc2ccc(OCCN3CCN(CCCO)CC3)c(F)c2F)C(=O)C(C(=O)Nc2ccc(C(F)(F)F)cc2-c2cc(C(F)(F)F)ncn2)=C(O)C12CCC2` [Example 362] stands 18.8 µM. `CCOC(=O)CCCCCCN1C(=O)C(C(=O)Nc2ccc(C(F)(F)F)cc2-c2ccc(C(F)(F)F)nc2)=C(O)[C@@]2(C)CCCN12` [Example 235, Ethyl 7-[(4aR)-4-hydroxy-4a-methyl-2-oxo-3-[[4-(trifluoromethyl)-2-[6-(trifluoromethyl)pyridin-3-yl]phenyl]carbamoyl]-6,7-dihydro-5H-pyrrolo[1,2-b]pyridazin-1-yl]heptanoate]: the IC50 (read-out: IC50) worked out at 4.8 µM. In the case of `CN1N(Cc2ccc(OCCCCOC[C@H](O)CO)c(F)c2F)C(=O)C(C(=O)Nc2ccc(C(F)(F)F)cc2-c2ccc(C(F)(F)F)nc2)=C(O)C12CCCC2` [Example 387], the IC50 under setting [1] is 10.7 µM. With `C[C@]12CCCN1N(Cc1ccc(OCCCCOC[C@H](O)CO)c(F)c1F)C(=O)C(C(=O)Nc1ccc(Cl)cc1-c1ccc(C(F)(F)F)nc1)=C2O` [Example 121, (4aR)—N-[4-Chloro-2-[6-(trifluoromethyl)pyridin-3-yl]phenyl]-1-[[4-[4-[(2R)-2,3-dihydroxypropoxy]butoxy]-2,3-difluorophenyl]methyl]-4-hydroxy-4a-methyl-2-oxo-6,7-dihydro-5H-pyrrolo[1,2-b]pyridazine-3-carboxamide], under “read-out: IC50”, the half-inhibitory concentration (IC50) was 16 µM.

`COc1cccc(-c2cc(C(F)(F)F)ccc2NC(=O)C2=C(O)[C@@]3(C)CCCN3N(Cc3ccc(C#CCOCCOCCOCCO)c(F)c3F)C2=O)c1OC` [Example 136]: the half-maximal inhibitory concentration (IC50) (read-out: IC50) stood at 17.6 µM.

For `C[C@]12CCCN1N(Cc1cc(F)ccc1F)C(=O)C(C(=O)Nc1cc(F)c(Br)c(F)c1)=C2O` [Example 193], for the setting “read-out: IC50”, the IC50 amounted to 6.4 µM.

As to `C[C@]12CCCN1N(Cc1c(F)cc(C#CCCOC[C@H](O)CO)cc1F)C(=O)C(C(=O)Nc1ccc(C(F)(F)F)cc1-c1ccc(C(F)(F)F)nc1)=C2O` [Example 145], the IC50 (read-out: IC50) is 7.1 µM. `CN1N(Cc2ccc(OCC(=O)N3CCOCC3)c(F)c2F)C(=O)C(C(=O)Nc2ccc(C(F)(F)F)cc2-c2cc(C(F)(F)F)ncn2)=C(O)C12CCC2` [Example 336, 8-[[2,3-Difluoro-4-(2-morpholin-2-oxo-ethoxy)phenyl]methyl]-5-hydroxy-9-methyl-7-oxo-N-[4-(trifluoromethyl)-2-[6-(trifluoromethyl)pyrimidin-4-yl]phenyl]-8,9-diazaspiro[3.5]non-5-ene-6-carboxamide]: for the setting “read-out: IC50”, the 50% inhibitory concentration (IC50) is 19.7 µM. Still for that read-out and setting: under `C[C@]12CCCN1N(Cc1cccc(F)c1F)C(=O)C(C(=O)Nc1ccc(Br)c(F)c1)=C2O` [Example 28] stands 4.1 µM. With `CN1N(Cc2cccc(F)c2F)C(=O)C(C(=O)Nc2ccc(C(F)(F)F)cc2-c2cc(C(F)(F)F)ncn2)=C(O)C12CCCC2` [Example 260], the IC50 (read-out: IC50) stood at 6.4 µM. The same measure, in the same setting: then `Cc1cccc(CN2C(=O)C(C(=O)Nc3ccc(C(F)(F)F)cc3-c3ccc(C(F)(F)F)nc3)=C(O)[C@@]3(C)CCCN23)c1F` [Example 205], with 1.6 µM.

The values above are taken from patent publication US9499553B2 (CHUGAI SEIYAKU KABUSHIKI KAISHA, priority 2013, dated 2016).
